Data on six compounds can be found in patent US4177277A, “Method for alleviating hypertension” (E. R. Squibb & Sons, Inc., priority 1978, dated 1979).

One assay relates to normotensive rats. The note with it: Ripa 1970; cited from earlier work.
For assay [1], the system named is anesthetized normotensive rats. The following applies: intravenous injection, Schulze 1972; cited from earlier work.
The conditions of assay [2]: Fujimura et al. 1964; cited from earlier work.
The target of assay [3] is T1, angiotensin-converting enzyme of rabbit lung (Oryctolagus cuniculus, UniProt P12822).
T1 construct: isolated angiotensin converting enzyme from rabbit lungs; from tissue; host or cells: rabbit lung
T1 sequence (P12822 34-1310): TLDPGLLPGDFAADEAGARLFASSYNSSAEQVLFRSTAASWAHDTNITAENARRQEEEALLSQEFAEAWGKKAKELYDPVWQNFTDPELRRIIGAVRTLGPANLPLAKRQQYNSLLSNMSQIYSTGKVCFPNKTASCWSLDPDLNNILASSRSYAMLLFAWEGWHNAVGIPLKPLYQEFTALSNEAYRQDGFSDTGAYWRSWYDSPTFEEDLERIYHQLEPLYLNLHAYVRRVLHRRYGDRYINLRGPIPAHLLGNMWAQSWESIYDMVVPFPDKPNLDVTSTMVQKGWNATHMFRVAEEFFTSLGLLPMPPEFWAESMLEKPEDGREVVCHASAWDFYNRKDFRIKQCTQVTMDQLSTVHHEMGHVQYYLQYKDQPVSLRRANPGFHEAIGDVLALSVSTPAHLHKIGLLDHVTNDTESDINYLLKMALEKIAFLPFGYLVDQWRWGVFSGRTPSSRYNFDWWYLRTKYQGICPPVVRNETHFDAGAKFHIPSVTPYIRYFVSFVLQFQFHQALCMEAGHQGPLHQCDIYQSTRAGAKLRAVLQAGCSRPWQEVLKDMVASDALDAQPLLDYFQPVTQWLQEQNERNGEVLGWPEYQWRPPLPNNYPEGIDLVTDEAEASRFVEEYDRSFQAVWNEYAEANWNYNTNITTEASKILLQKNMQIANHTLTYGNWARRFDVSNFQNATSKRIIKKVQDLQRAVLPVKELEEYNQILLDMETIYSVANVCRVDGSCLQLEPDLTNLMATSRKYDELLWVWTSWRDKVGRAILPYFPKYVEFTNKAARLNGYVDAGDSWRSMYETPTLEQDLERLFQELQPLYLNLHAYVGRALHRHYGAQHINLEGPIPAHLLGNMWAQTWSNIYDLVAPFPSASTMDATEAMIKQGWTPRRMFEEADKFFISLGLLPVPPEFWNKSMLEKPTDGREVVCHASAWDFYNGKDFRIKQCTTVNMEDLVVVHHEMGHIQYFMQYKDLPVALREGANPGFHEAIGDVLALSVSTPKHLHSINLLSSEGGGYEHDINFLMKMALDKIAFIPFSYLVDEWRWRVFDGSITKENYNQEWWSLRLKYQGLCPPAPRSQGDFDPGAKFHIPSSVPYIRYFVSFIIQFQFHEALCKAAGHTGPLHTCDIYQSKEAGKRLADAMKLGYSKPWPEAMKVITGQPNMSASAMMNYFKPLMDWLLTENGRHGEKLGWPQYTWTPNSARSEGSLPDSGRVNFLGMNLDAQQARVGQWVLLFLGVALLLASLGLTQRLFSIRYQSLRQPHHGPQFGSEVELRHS
The experiment in a line: Inhibition of isolated angiotensin-converting enzyme of rabbit lung (cleavage of hippuryl-L-histidyl-L-leucine). The format is biochemical. The note with it: 5 mM hippuryl-L-histidyl-L-leucine, pH 8.3, 30 minutes at 37° C., read-out: I50 (concentration producing a 50% inhibition of angiotensin-converting enzyme) (converted). From the text: Although conversion of angiotensin I to angiotensin II by angiotensin-converting enzyme is probably the reaction of most importance in the pathology of hypertension, the activity of the isolated enzyme is more conveniently and accurately assayed by measuring its rate of cleavage of a simpler peptide substrate, hippuryl-L-histidyl-L-leucine. […] Controls containing no inhibitor (100% activity), and those acidified before addition of the enzyme (0% activity) are similarly prepared. All of the enzymatic reations are initiated by addition of the enzyme component; tubes are incubated for 30 minutes at 37° C.; and reactions are terminated by addition of 0.25 ml. of 1 N HCl. The hippuric acid formed by action of angiotensin-converting enzyme on hippuryl-L-histidyl-L-leucine is extracted into ethyl acetate, evaporated to dryness, redissolved in water and quantitated from its absorbance at 228 nm. The percent inhibition by each concentration of compound is calculated by comparison with the 0% and 100% activity controls.

Assay [4] relates to angiotensin I converting enzyme in excised guinea pig ileum. Briefly: Inhibition of angiotensin I converting enzyme in excised guinea pig ileum (contractile activity of angiotensin I). The format is cell-based. The note with it: Cavia porcellus, Krebs solution at 37°, angiotensin I added after two minutes, read-out: IC50 (inhibition of the contractile activity of angiotensin I by 50%). As to the method: After two minutes, angiotensin I ([…]) is added and the isotonic contractions are measured.

For assay [5], the system named is angiotensin I pressor response. The experiment in a line: Inhibition of angiotensin I pressor response in unanesthetized rats after oral administration. Type of assay: in vivo, rats of the Sprague-Dawley strain. The following applies: unanesthetized male Sprague-Dawley rats, 0.31 μg/kg angiotensin I, 2 animals. As for the experimental part: A representative compound of the present invention administered orally at doses of 10 and 100 mg/kg to unanesthetized male rats of the Sprague-Dawley strain weighing about 200 g., followed by an injection of 0.31 μg/kg of angiotensin I, indicates the following degree of inhibition obtained.

Converted amounts (≈) assume the structure as drawn. Non-standard residues stand in square brackets, D forms with d. Residues, ends and D or L forms follow the SMILES beside them.

Regarding `CC(S)C(=O)NCC(=O)O` (stereo not shown) [2-mercaptopropionyl-glycine], in the assay with normotensive rats, the angiotensinogen result was “increases angiotensinogen” and the renin blood levels result is listed as “lowers renin blood levels”. Further, the “lowering of the blood pressure” value in assay [1] is given as “produced lowering of the blood pressure”. Besides, in assay [2], the “effects on blood pressure” value was “no noticeable effects on blood pressure”.
Turning to `N[C@@H](CS)C(=O)N1CCC[C@H]1C(=O)O` [L-Cysteinyl-L-proline] (H-Cys-Pro-OH), the values for the IC50 in assay [3] and in assay [4] were 36700 nM and 23 µg/mL (≈ 105 µM), respectively.
As to `N[C@H](CS)C(=O)N1CCC[C@H]1C(=O)O` [D-Cysteinyl-L-proline] (H-[dC]-Pro-OH), the “% maximum inhibition of angiotensin I pressor response” value in assay [5] (10 mg/kg orally) worked out at 62%; in assay [5] (100 mg/kg orally), 95%. The IC50 in assay [3] was 596 nM; in assay [4], 0.05 µg/mL (≈ 0.229 µM).
As to `CC(=O)NC(CSC(C)=O)C(=O)N1CCC[C@H]1C(=O)O` (mixture of isomers) [N,S-Diacetyl-DL-cysteinyl-L-proline], the IC50 in assay [3] is 72800 nM; in assay [4], 23 µg/mL.
Regarding `CC(=O)NC(CS)C(=O)N1CCC[C@H]1C(=O)O` (mixture of isomers) [N-Acetyl-DL-cysteinyl-L-proline], the IC50 in assay [3] was 1150 nM; in assay [4], 0.6 µg/mL.
Taken in the same sequence, the figures for `NCCCC(CS)C(=O)N1CCC[C@H]1C(=O)O` (mixture of isomers) [1-(5-Amino-2-mercaptomethylpentanoyl)-L-proline] were 69.1 nM and 0.47 µg/mL (≈ 1.81 µM).
